From PubChem BioAssay AID1259407 (Chemical Carcinogenesis Research Information System (CCRIS), 2018)
Active and inactive are the calls of the source. How the calls were made is not given here.

Tested on: CCRIS mutagenicity, Ames/micronucleus/aberration tests
Experiment: CCRIS mutagenicity studies
[1] = Test System: AMES SALMONELLA TYPHIMURIUM, Strain/Indicator: TA98, Metabolic Activation: NONE, Method: PREINCUBATION
[2] = Test System: AMES SALMONELLA TYPHIMURIUM, Strain/Indicator: TA100, Metabolic Activation: NONE, Method: PREINCUBATION
[3] = Test System: AMES SALMONELLA TYPHIMURIUM, Strain/Indicator: TA1535, Metabolic Activation: NONE, Method: PREINCUBATION
[4] = Test System: AMES SALMONELLA TYPHIMURIUM, Strain/Indicator: TA1537, Metabolic Activation: NONE, Method: PREINCUBATION

## CC(C)(C)N
Test System: AMES SALMONELLA TYPHIMURIUM, Strain/Indicator: TA98, Metabolic Activation: HAMSTER, LIVER, S-9, AROCLOR 1254 (10%), Method: PREINCUBATION
  mutagenic call: inactive; negative
[1]
  mutagenic call: inactive; negative
Test System: AMES SALMONELLA TYPHIMURIUM, Strain/Indicator: TA98, Metabolic Activation: RAT LIVER S-9, PHENOBARBITAL AND BETA-NAPHTHOFLAVONE, Method: PREINCUBATION
  mutagenic call: inactive; negative
Test System: AMES SALMONELLA TYPHIMURIUM, Strain/Indicator: TA98, Metabolic Activation: RAT, LIVER, S-9, AROCLOR 1254 (10%), Method: PREINCUBATION
  mutagenic call: inactive; negative
Test System: AMES SALMONELLA TYPHIMURIUM, Strain/Indicator: TA100, Metabolic Activation: HAMSTER, LIVER, S-9, AROCLOR 1254 (10%), Method: PREINCUBATION
  mutagenic call: inactive; negative
[2]
  mutagenic call: inactive; negative
Test System: AMES SALMONELLA TYPHIMURIUM, Strain/Indicator: TA100, Metabolic Activation: RAT LIVER S-9, PHENOBARBITAL AND BETA-NAPHTHOFLAVONE, Method: PREINCUBATION
  mutagenic call: inactive; negative
Test System: AMES SALMONELLA TYPHIMURIUM, Strain/Indicator: TA100, Metabolic Activation: RAT, LIVER, S-9, AROCLOR 1254 (10%), Method: PREINCUBATION
  mutagenic call: inactive; negative
Test System: AMES SALMONELLA TYPHIMURIUM, Strain/Indicator: TA1535, Metabolic Activation: HAMSTER, LIVER, S-9, AROCLOR 1254 (10%), Method: PREINCUBATION
  mutagenic call: inactive; negative
[3]
  mutagenic call: inactive; negative
Test System: AMES SALMONELLA TYPHIMURIUM, Strain/Indicator: TA1535, Metabolic Activation: RAT LIVER S-9, PHENOBARBITAL AND BETA-NAPHTHOFLAVONE, Method: PREINCUBATION
  mutagenic call: inactive; negative
Test System: AMES SALMONELLA TYPHIMURIUM, Strain/Indicator: TA1535, Metabolic Activation: RAT, LIVER, S-9, AROCLOR 1254 (10%), Method: PREINCUBATION
  mutagenic call: inactive; negative
Test System: AMES SALMONELLA TYPHIMURIUM, Strain/Indicator: TA1537, Metabolic Activation: HAMSTER, LIVER, S-9, AROCLOR 1254 (10%), Method: PREINCUBATION
  mutagenic call: inactive; negative
[4]
  mutagenic call: inactive; negative
Test System: AMES SALMONELLA TYPHIMURIUM, Strain/Indicator: TA1537, Metabolic Activation: RAT LIVER S-9, PHENOBARBITAL AND BETA-NAPHTHOFLAVONE, Method: PREINCUBATION
  mutagenic call: inactive; negative
Test System: AMES SALMONELLA TYPHIMURIUM, Strain/Indicator: TA1537, Metabolic Activation: RAT, LIVER, S-9, AROCLOR 1254 (10%), Method: PREINCUBATION
  mutagenic call: inactive; negative
Test System: E.COLI, Strain/Indicator: WP2UVRA/PKM101, Metabolic Activation: NONE, Method: PREINCUBATION
  mutagenic call: inactive; negative
Test System: E.COLI, Strain/Indicator: WP2UVRA/PKM101, Metabolic Activation: RAT LIVER S-9, PHENOBARBITAL AND BETA-NAPHTHOFLAVONE, Method: PREINCUBATION
  mutagenic call: inactive; negative

## CN1C(=O)CC[C@H]1c1cccnc1
[1]
  mutagenic call: inactive; negative
Test System: AMES SALMONELLA TYPHIMURIUM, Strain/Indicator: TA98, Metabolic Activation: RAT, LIVER, S-9, AROCLOR 1254 (5%), Method: PREINCUBATION
  mutagenic call: inactive; negative
[2]
  mutagenic call: inactive; negative
Test System: AMES SALMONELLA TYPHIMURIUM, Strain/Indicator: TA100, Metabolic Activation: RAT, LIVER, S-9, AROCLOR 1254 (5%), Method: PREINCUBATION
  mutagenic call: inactive; negative
[3]
  mutagenic call: inactive; negative
Test System: AMES SALMONELLA TYPHIMURIUM, Strain/Indicator: TA1535, Metabolic Activation: RAT, LIVER, S-9, AROCLOR 1254 (5%), Method: PREINCUBATION
  mutagenic call: inactive; negative
[4]
  mutagenic call: inactive; negative
Test System: AMES SALMONELLA TYPHIMURIUM, Strain/Indicator: TA1537, Metabolic Activation: RAT, LIVER, S-9, AROCLOR 1254 (5%), Method: PREINCUBATION
  mutagenic call: inactive; negative
Test System: AMES SALMONELLA TYPHIMURIUM, Strain/Indicator: TA1538, Metabolic Activation: NONE, Method: PREINCUBATION
  mutagenic call: inactive; negative
Test System: AMES SALMONELLA TYPHIMURIUM, Strain/Indicator: TA1538, Metabolic Activation: RAT, LIVER, S-9, AROCLOR 1254 (5%), Method: PREINCUBATION
  mutagenic call: inactive; negative

## CC(C)CCC[C@@H](C)[C@H]1CC[C@H]2[C@@H]3C[C@H]4O[C@]45C[C@@H](O)CC[C@]5(C)[C@H]3CC[C@]12C
Test System: CHINESE HAMSTER V-79, Strain/Indicator: V-79/6-THIOGUANINE, Metabolic Activation: NONE
  mutagenic call: active; positive
Test System: CHINESE HAMSTER V-79, Strain/Indicator: V-79/OUABAIN, Metabolic Activation: NONE
  mutagenic call: inactive; negative
